According to patent US6727237B2, “Inhibitors of bacterial NAD synthetase” (priority 1998, dated 2004):
≈ marks a conversion by molar mass, not a printed value. Where “and” joins values, the source holds several entries; their conditions need not be identical. Equal entries are not always repeated.

Tests used:
[1] = tested on: Staphylococcus epidermitis; assay: Dose response of bacterial growth inhibition, MIC85; conditions: for MIC: Staphylococcus, read-out: MIC85; for MIC85: minimum inhibitory concentration to achieve 85% inhibition, S. epidermitis
[2] = tested on: Staphylococcus epidermitis; assay: Bacterial growth inhibition screen in LB media (absorbance 595 nm), percent inhibition; conditions: for inhibition of growth at 100 µM / inhibition of growth at 10 µM: Staphylococcus, read-out: % Inhibition, S. epidermitis; for % Inhibition: S. epidermitis
[3] = target: T1, bacterial NAD synthetase enzyme (Bacillus subtilis, UniProt P08164); assay: biochemical; assay type: biochemical
T1 sequence (P08164 2-272 limits assumed): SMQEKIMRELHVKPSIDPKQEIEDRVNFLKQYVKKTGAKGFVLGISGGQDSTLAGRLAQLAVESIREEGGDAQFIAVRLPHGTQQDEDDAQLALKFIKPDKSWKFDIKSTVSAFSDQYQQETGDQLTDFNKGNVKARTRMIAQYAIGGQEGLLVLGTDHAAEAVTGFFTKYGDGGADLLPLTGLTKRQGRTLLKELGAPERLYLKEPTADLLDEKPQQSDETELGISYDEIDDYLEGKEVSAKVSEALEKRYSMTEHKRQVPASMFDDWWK

[4] = compound at 0.2 mM (Table 312A)

COC(=O)c1ccc2ccn(CCCCCCCCC[n+]3ccccc3)c2c1 [Compound 214]
MIC [1]: 10 µM
inhibition of growth at 100 µM ([2]; concentration screened 100 uM): 98.1%
IC50 [3]: 30 µM
inhibition at 100 µM [3]: 82.8%

COC(=O)c1ccc2ccn(CCCCCCCCC[n+]3cccc(C(=O)OC)c3)c2c1 [Compound 222]
MIC85 [1]: 30 µM
% Inhibition ([2]; concentration screened 10 uM): 98.50%
% Inhibition [3, 4]: 52.98%

COC(=O)c1cc2cc(OCc3ccccc3)ccc2n1CCC[n+]1ccccc1 [Compound 227]
MIC85 [1]: 30 µM
% Inhibition ([2]; concentration screened 10 uM): 96.46%
% Inhibition [3, 4]: 91.19%

COC(=O)c1ccc[n+](CCCCCCCCCn2ccc3cc([N+](=O)[O-])ccc32)c1 [Compound 14]
MIC85 [1]: 10 µM
% Inhibition ([2]; concentration screened 10 uM): 98.58% and 96.19%
% Inhibition [3, 4]: 78.85%

C[n+]1cc(C(=O)OCCCCCCn2ccc3cc([N+](=O)[O-])ccc32)cc2ccccc21 [Compound 832]
MIC [1]: 30 µM
inhibition of growth at 10 µM ([2]; concentration screened 10 uM): 94.7%
IC50 [3]: 90 µM
inhibition at 100 µM [3]: 78.6%

C[N+](C)(C)c1ccc(CC(=O)OCCCCCCn2ccc3cc(OCc4ccccc4)ccc32)cc1 [Compound 747]
MIC [1]: 10 µM
inhibition of growth at 10 µM ([2]; concentration screened 10 uM): 97.9%
IC50 [3]: 70 µM
inhibition at 100 µM [3]: 97.8%

FC(F)(F)c1ccc2[nH]c(CCCCC[n+]3ccccc3)cc2c1 [Compound 362]
MIC85 [1]: 30 µM
% Inhibition ([2]; concentration screened 100 uM): 100.00%
% Inhibition ([3]; compound at 0.1 mM (Table 314)): 8.31%

COc1ccc2[nH]c(CCCCCC[n+]3ccccc3)cc2c1 [Compound 375]
MIC85 [1]: 30 µM
% Inhibition ([2]; concentration screened 100 uM): 100.00%
% Inhibition ([3]; compound at 0.1 mM (Table 314)): 60.14%

COC(=O)c1ccc[n+](CCCCCCCCCn2c(C(=O)OC)cc3ccccc32)c1 [Compound 190]
MIC [1]: 3 µM
inhibition of growth at 100 µM ([2]; concentration screened 100 uM): 97.7%
IC50 [3]: 50 µM

FC(F)(F)c1ccc2cc(CCCCCC[n+]3ccccc3)[nH]c2c1 [Compound 291]
MIC85 [1]: 30 µM
% Inhibition ([2]; concentration screened 100 uM): 100.00%
% Inhibition [3, 4]: 71.94%

c1ccc2c[n+](CCCCCc3cc4ccccc4[nH]3)ccc2c1 [Compound 500]
MIC85 [1]: 30 µM
% Inhibition ([2]; concentration screened 100 uM): 99.14%
% Inhibition ([3]; compound at 0.1 mM (Table 314)): 18.25%

c1ccc(C(c2ccccc2)(c2ccccc2)c2ccc3[nH]c(CCC[n+]4ccc5ccccc5c4)cc3c2)cc1 [Compound 552]
MIC85 [1]: 30 µM
% Inhibition ([2]; concentration screened 10 uM): 50.00%
% Inhibition ([3]; compound at 0.1 mM (Table 314)): 15.24%

C[n+]1cccc(C(=O)OCCCCCCCn2ccc3cc(OCc4ccccc4)ccc32)c1 [Compound 768]
MIC [1]: 10 µM
inhibition of growth at 100 µM ([2]; concentration screened 100 uM): 96.1%
IC50 [3]: 30 µM
inhibition at 100 µM [3]: 98.6%

COc1ccc2c(ccn2CCCCCCCCOC(=O)Cc2ccc([N+](C)(C)C)cc2)c1 [Compound 744]
MIC85 [1]: 30 µM
% Inhibition ([2]; concentration screened 10 uM): 97.74%
% Inhibition [3, 4]: 95.85%

COC(=O)c1ccc[n+](CCCCCCCCn2ccc3cc([N+](=O)[O-])ccc32)c1 [Compound 13]
MIC [1]: 30 µM
inhibition of growth at 10 µM ([2]; concentration screened 10 uM): 98.5%
IC50 [3]: 50 µM
inhibition at 200 µM [3]: 80.8%

COC(=O)c1ccc2ccn(CCCCCCC[n+]3ccccc3)c2c1 [Compound 213]
MIC [1]: 10 µM
inhibition of growth at 10 µM ([2]; concentration screened 10 uM): 97.4%
IC50 [3]: 65 µM
inhibition at 200 µM [3]: 90.7%

COC(=O)c1ccc2c(ccn2CCCCCCCCC[n+]2cc(C(=O)OC)cc3ccccc32)c1 [Compound 174]
MIC [1]: 10 µM
inhibition of growth at 10 µM ([2]; concentration screened 10 uM): 98.7%
IC50 [3]: 40 µM

COC(=O)c1cc2cc(OC)ccc2n1CCCCCCCCC[n+]1ccccc1 [Compound 246]
MIC85 [1]: 30 µM
% Inhibition ([2]; concentration screened 10 uM): 90.26%
% Inhibition [3, 4]: 92.19%

Cc1ccc2[nH]c(CCCCC[n+]3ccc4ccccc4c3)cc2c1 [Compound 512]
MIC85 [1]: 30 µM
% Inhibition ([2]; concentration screened 100 uM): 99.71%
% Inhibition [3, 4]: 17.50%

c1ccc(C(c2ccccc2)(c2ccccc2)c2ccc3[nH]c(CCCC[n+]4ccc5ccccc5c4)cc3c2)cc1 [Compound 553]
MIC85 [1]: 10 µM
% Inhibition ([2]; concentration screened 10 uM): 94.92%
% Inhibition ([3]; compound at 0.1 mM (Table 314)): 49.49%

COC(=O)c1ccc[n+](CCCCCCCn2ccc3cc([N+](=O)[O-])ccc32)c1 [Compound 12]
MIC85 [1]: 30 µM
% Inhibition ([2]; concentration screened 10 uM): 99.22% and 95.73%
% Inhibition ([3]; compound at 0.1 mM (Table 314)): 62.22%

COC(=O)c1cc2cc(OCc3ccccc3)ccc2n1CCCCCCC[n+]1ccccc1 [Compound 229]
MIC [1]: 3 µM
inhibition of growth at 100 µM ([2]; concentration screened 100 uM): 98%
IC50 [3]: 25 µM
inhibition at 100 µM [3]: 99.3%

FC(F)(F)c1ccc2cc(CCC[n+]3ccccc3)[nH]c2c1 [Compound 288]
MIC85 [1]: 30 µM
% Inhibition ([2]; concentration screened 10 uM): 99.65%
% Inhibition ([3]; compound at 0.1 mM (Table 314)): 42.38%

C[N+](C)(C)c1ccc(CC(=O)OCCCCn2ccc3cc(OCc4ccccc4)ccc32)cc1 [Compound 745]
MIC [1]: 30 µM
inhibition of growth at 10 µM ([2]; concentration screened 10 uM): 95.1%
IC50 [3]: 85 µM
inhibition at 200 µM [3]: 85.4%

C[n+]1cc(C(=O)OCCCCCn2ccc3cc(OCc4ccccc4)ccc32)cc2ccccc21 [Compound 826]
MIC85 [1]: 3.7 µM
% Inhibition ([2]; concentration screened 10 uM): 92.57%

O=C(OCCCCCCCn1ccc2cc([N+](=O)[O-])ccc21)c1cnc2ccccc2c1 [Compound 833]
MIC85 [1]: 10 µM (≈ 4.31 µg/mL)
% Inhibition ([2]; concentration screened 10 uM): 98.00%

FC(F)(F)c1ccc2[nH]c(CCCCCC[n+]3ccccc3)cc2c1 [Compound 363]
MIC85 [1]: 30 µM
% Inhibition ([2]; concentration screened 100 uM): 100.00%
% Inhibition [3, 4]: 75.01%

COC(=O)c1cc2cc(OCc3ccccc3)ccc2n1CCCCC[n+]1ccccc1 [Compound 228]
MIC [1]: 10 µM
inhibition of growth at 100 µM ([2]; concentration screened 100 uM): 96.8%
IC50 [3]: 60 µM
inhibition at 100 µM [3]: 95.1%

Cc1ccc2[nH]c(CCCCCC[n+]3ccccc3)cc2c1 [Compound 297]
MIC85 [1]: 30 µM
% Inhibition ([2]; concentration screened 100 uM): 100.00%
% Inhibition ([3]; compound at 0.1 mM (Table 314)): 50.83%

COc1ccc2[nH]c(CCCCC[n+]3ccccc3)cc2c1 [Compound 374]
MIC85 [1]: 30 µM
% Inhibition ([2]; concentration screened 100 uM): 100.00%
% Inhibition ([3]; compound at 0.1 mM (Table 314)): 31.84%

C[N+](C)(C)c1cccc(C(=O)OCCCCCCCn2ccc3cc(OCc4ccccc4)ccc32)c1 [Compound 808]
MIC85 [1]: 30 µM
% Inhibition ([2]; concentration screened 10 uM): 98.06%

CN(C)c1cccc(C(=O)OCCCCCCCn2ccc3cc([N+](=O)[O-])ccc32)c1 [Compound 839]
MIC85 [1]: 30 µM (≈ 12.7 µg/mL)
% Inhibition ([2]; concentration screened 10 uM): 99.35%

O=C(OCCCCCCCCn1ccc2cc([N+](=O)[O-])ccc21)c1cnc2ccccc2c1 [Compound 834]
MIC85 [1]: 3.7 µM (≈ 1.65 µg/mL)
% Inhibition ([2]; concentration screened 10 uM): 98.13%

COc1ccc2c(ccn2CCCCCCCCOC(=O)c2cc3ccccc3[n+](C)c2)c1 [Compound 824]
MIC85 [1]: 3.7 µM
% Inhibition ([2]; concentration screened 10 uM): 97.67%

C[N+](C)(C)c1cccc(C(=O)OCCCCCCCCn2ccc3cc(OCc4ccccc4)ccc32)c1 [Compound 809]
MIC85 [1]: 10 µM
% Inhibition ([2]; concentration screened 10 uM): 99.81%

COc1ccc2c(ccn2CCCCCCCOC(=O)c2cc3ccccc3[n+](C)c2)c1 [Compound 823]
MIC85 [1]: 10 µM
% Inhibition ([2]; concentration screened 10 uM): 97.03%

C[n+]1cc(C(=O)OCCCCCCn2ccc3cc(OCc4ccccc4)ccc32)cc2ccccc21 [Compound 827]
MIC85 [1]: 3.7 µM
% Inhibition ([2]; concentration screened 10 uM): 95.86%

CN(C)c1cccc(C(=O)OCCCCCCCCn2ccc3cc([N+](=O)[O-])ccc32)c1 [Compound 840]
MIC85 [1]: 10 µM (≈ 4.38 µg/mL)
% Inhibition ([2]; concentration screened 10 uM): 98.77%
